{"source": "patent US10751396B2", "about": "“Early hyperlipidemia promotes endothelial activation via a caspase-1-sirtuin 1 pathway” (Temple University—Of The Commonwealth System of Higher …, priority 2015, dated 2020)", "assay_type_in_all_cases": "cell-based, human", "key": {"caspase-1": {"test_system": "caspase-1", "assay": "Caspase-1 activity assay (FAM-YVAD-FMK, flow cytometry) in HAECs", "settings": "for oxLDL-induced caspase-1 activation with ROS inhibitors: Allopurinol 1 mmol/L, Apocynin 100 μM added 1 hour before oxLDL (100 μg/mL) 6 hours", "procedure": "(§1) Active caspase-1 level was determined with APO LOGIX kit (Cell Tech., Mountain View, Calif.). The kit contains a carboxyfluorescein (FAM) [Excitation/Emission (nm):490/520]-labeled peptide fluoromethyl ketone (FMK) caspase-1 inhibitor (FAM-YVAD-FMK), which irreversibly binds to active caspase-1. All procedures were performed according to the manufacturer's instruction. Briefly, HAECs (≤passage 9) were cultured in 6-well plates and serum starved overnight to quiescent the cells before treatment. Next day, HAECs were treated with indicated stimuli for 6 hr. Cells were then digested by trypsin-EDTA and suspended at 1×10^6 cells/ml. 150 μl of cell suspension were incubated at 37° C. with 1× FAM-YVAD-FMK for 1 hour then washed with 1× washing buffer. Unfixed caspase-1 stained cells were then incubated with 7-aminoactinomycin D (7-AAD; cell membrane integrity marker) (BD Pharmingen, San Diego, Calif.) for no more than 10 min before analysis. The Calibur flow cytometer (BD Biosciences, San Jose, Calif.) was used to determine caspase-1 active (Caspase-1^+) and 7-AAD^+ cells. Data were analyzed with the FlowJo software (Tree Star, Ashland, Oreg.).\nActive caspase-1 levels were determined with an APO LOGIX kit (Cell Technology, Mountain View, Calif.). The kit contained a carboxyfluorescein (FAM) (excitation/emission (nm): 490/520)-labeled peptide fluoromethyl ketone (FMK) caspase-1 inhibitor (FAM-YVAD-FMK), which irreversibly binds to active caspase-1. The procedures were performed according to the manufacturer's instructions. HAECs were cultured in 6-well dishes and serum-starved overnight to ensure quiescence of the cells before treatment. The next day, HAECs were treated with the indicated stimuli for 6 h. Cells were harvested and suspended at 1×10^6 cells/ml. The cell suspension (150 μl) was incubated in 37° C. with 1× FAM-YVAD-FMK for 1 h. After being washed with 1× washing buffer, the cells were fixed with fixative buffer and stored in 4° C. for up to 24 h. To determine the cell membrane integrity, the unfixed cells were stained with 7-AAD (Pharmingen) (0.25 μg/test) and incubated for no more than 10 min before analysis.\nAll flow cytometric data were analyzed by using the FlowJo software (Tree Star, Ashland, Oreg.). The uncompensated data were collected from the flow cytometer (either FACSCalibur flow cytometer or LSRII flow cytometer; BD Biosciences). Forward and side scatter gates were used to select live cell populations from clumps and debris. The positive gating was determined by its matched IgG control, and single staining was used to determine the compensation parameter. Different gates were established to analyze the data according to cell size as described in our figures."}, "[1]": {"test_system": "alpha actin and calponin RNA transcripts in HAVSMCs", "assay": "Contractile marker RNA in HAVSMCs exposed to uremic serum (quantitative RT-PCR)", "settings": "HAVSMC, 10% pooled CKD sera 24 hours, compared to non-treated controls", "procedure": "FIG. 29 depicts experimental results showing the exposure of human aortic vascular smooth muscle cells (HAVSMCs) to uremic serum decreases the expression of contractile marker RNA transcripts, which is reversed by the inhibition of caspase-1. HAVSMCs were grown to sub-confluence and were serum starved for 24 hours and exposed to 10% pooled uremic sera from CKD patients (CKD PS) with and without Caspase-1 Inhibitor (Casp1 inh) for another 24 hours. The RNA was extracted, was reverse transcribed into cDNA, and the expression of smooth muscle contractile marker RNA transcripts (alpha actin and calponin) was measured by quantitative RT-PCR using the Applied Biosystems 7500, Taqman primers and probes. The relative quantification of gene RNA expression is presented after being normalized with the expression of a house-keeping gene. *P value<0.005.\nBlood samples were obtained from 6 healthy donors with normal kidney function and 20 patients with end stage renal disease who were on hemodialysis. […]\nTotal RNA from cultured cells was extracted using the RNeasy kit (Qiagen, Valencia, Calif.), and cDNA was synthesized with the VILO first-strand synthesis system (Invitrogen, Grand Island, N.Y.). […] Relative gene expression levels were calculated after normalization with the internal control eukaryotic 18S gene using the 2^−deltadeltaCt method, where Ct is the threshold value."}, "Sirt1": {"test_system": "Sirt1", "assay": "Sirt1 cleavage in oxLDL-treated HAECs by Western blot", "settings": "agent added 1 hour before oxLDL (100 μg/mL, 24 hours)", "text": "FIG. 8, comprising FIG. 8A through FIG. 8C, depicts experimental results showing hyperlipidemia/dyslipidemia decreases sirtuin 1 (Sirt1) expression in ApoE^−/− mouse aorta and induces Sirt1 cleavage in human aortic endothelial cells (ECs) through caspase-1 (casp-1) activation. FIG. 8A depicts Casp-1 deficiency results in Sirt1 accumulation in mouse aorta in ApoE^−/−/Casp-1^−/− mice. ApoE^−/− mice and ApoE^−/−/Casp-1^−/− mice were fed with a high fat (HF) diet for 3 weeks. Mouse aortic tissues were collected for uncleaved Sirt1 protein expression analysis by Western blot with the specific antibody (left panel). The quantification of Sirt1 expression in the Western blot was presented after normalized with the expression of β-actin in the same sample (right panel). FIG. 8B depicts oxidized low-density lipoprotein (OxLDL) induces Sirt1 cleavage in human aortic endothelial cells (HAECs). HAECs were cultured and treated with oxLDL (100 μg/mL) for 24 hours. […] The protein lysates were collected, and cleaved-Sirt1 expression was determined by Western blot with anti-Sirt1 antibody. The relative changes of Sirt1 expression normalized by β-actin (ratios) were calculated based on the ratios of Sirt1 expression levels in treated samples over that in nontreated samples. […]"}, "HAECs": {"test_system": "HAECs", "assay": "Caspase-1/7-AAD co-staining for pyroptosis in HAECs", "settings": "HAECs, 6-hour stimulation; oxLDL 100 μg/mL, LPA 100 μM, LPC 15 μM", "procedure": "FIG. 7, comprising FIG. 7A through FIG. 7D, depicts experimental results showing Oxidized low-density lipoprotein (oxLDL) and its components induce caspase-1 (casp-1) activation in human aortic endothelial cells (HAECs) via a reactive oxygen species (ROS)-mediated p-athway. FIG. 7A depicts pyroptotic cell death in HAECs caused by activation of casp-1 induced by oxLDL and its components. HAECs were cultured and treated with low-density lipoprotein (LDL; 100 μg/mL), oxLDL (100 μg/mL), oxLDL-derivatives lysophosphatidic acid (LPA, 100 μM), or lysophosphatidylcholine (LPC, 15 μM) as indicated for 6 hours. Casp-1 activity was determined by a commercial kit, and 7-aminoactinomycin D (7-AAD) fluorescence dye was used to determine the cell membrane integrity. Casp-1^+/7-AAD^+ cells were gated as pyrototic cells (Q3), casp-1^+ single positive cells (Q2) were gated as inflammatory cells, and 7-AAD^+ single positive cells (Q4) were gated as necrotic cells. FIG. 7B depicts ROS levels in pyroptotic cells. ROS levels were determined by dihydroethidium (DHE) fluorescence dye staining, and the mean fluorescence intensity (MFI) of DHE^+ cell fraction was determined. […] Allopurinol (1 mmol/L) and Apocynin (100 μM) were added 1 hour before oxLDL treatment. HAECs were then treated with oxLDL (100 μg/mL) for 6 hours and stained for caspase-1 activity. FIG. 7D depicts mRNA upregulation of inflammasome components, including NLRP1 (Nod-like receptor protein 1), NLRP3 (Nod-like receptor 3), PYCARD (or ASC, inflammasome adaptor apoptosis-associated speck-like protein containing a CARD), caspase-1, and IL-1β (interleukin-1β) in HAECs treated with oxLDL. Data are expressed as mean±SE. *P<0.05, changes with statistical significance.\nas §1\nActive caspase-1 levels were determined with an APO LOGIX kit (Cell Technology, Mountain View, Calif.). The kit contained a carboxyfluorescein (FAM) (excitation/emission (nm): 490/520)-labeled peptide fluoromethyl ketone (FMK) caspase-1 inhibitor (FAM-YVAD-FMK), which irreversibly binds to active caspase-1. The procedures were performed according to the manufacturer's instructions. HAECs were cultured in 6-well dishes and serum-starved overnight to ensure quiescence of the cells before treatment. The next day, HAECs were treated with the indicated stimuli for 6 h. Cells were harvested and suspended at 1×10^6 cells/ml. […]"}}, "note": "Residues, ends and D or L forms follow the SMILES beside them. *: point of attachment. Cbz = O=C(OCc1ccccc1)*"}
{"compound": "CC(C)c1cc(/C=C(\\C#N)C(=O)NCCCc2ccccc2)cc(C(C)C)c1O", "note": "[SU1498]", "values": [{"measurement": "caspase-1 activation after VEGFR-2 inhibition", "setting": "caspase-1; HAECs pretreated with SU1498, then LPC (30 μM) 6 h after overnight serum starvation", "result": "increases caspase-1 activation"}]}
{"compound": "COC(=O)C[C@H](NC(=O)[C@H](C)NC(=O)[C@@H](NC(=O)[C@H](Cc1ccc(O)cc1)NC(=O)OCc1ccccc1)C(C)C)C(=O)CF", "note": "[Z-YVAD-FMK]", "values": [{"measurement": "relative quantification of alpha-actin RNA", "setting": "[1]", "result": 0.588}, {"measurement": "relative quantification of calponin RNA", "setting": "[1]", "result": 0.601}]}
{"compound": "CC(C)C[C@@H](C=O)NC(=O)[C@H](CC(C)C)NC(=O)[C@H](CC(C)C)NC(=O)OCc1ccccc1", "note": "[MG-132] (Cbz-Leu-Leu-Leu-aldehyde)", "values": [{"measurement": "oxLDL-induced Sirt1 cleavage with inhibitor", "setting": "Sirt1", "result": "inhibited"}]}
{"compound": "RQIKIWFQNRRMKWKKGYRDNLLFGAEIITNGFHSC (N-terminal protein transduction sequence; listed as Homo sapiens) [NC-Sirt1]", "values": [{"measurement": "oxLDL-induced Sirt1 cleavage with inhibitor", "setting": "Sirt1", "result": "dose-dependently decreases"}]}
{"compound": "Oc1ncnc2[nH]ncc12", "note": "[Allopurinol]", "values": [{"measurement": "oxLDL-induced caspase-1 activation with ROS inhibitors", "setting": "caspase-1", "result": "attenuation of oxLDL-induced caspase-1 activation"}]}
{"compound": "COc1cc(C(C)=O)ccc1O", "note": "[Apocynin]", "values": [{"measurement": "oxLDL-induced caspase-1 activation with ROS inhibitors", "setting": "caspase-1", "result": "attenuation of oxLDL-induced caspase-1 activation"}]}
{"compound": "mono-acylsn-glycero-3-phosphate [LPA]", "values": [{"measurement": "induction of inflammation, pyroptosis and necrosis (caspase-1/7-AAD gating)", "setting": "HAECs", "result": "induced inflammation, inflammatory cell death (pyroptosis), and necrosis"}, {"measurement": "caspase-1 activation in larger size of HAECs", "setting": "caspase-1; 6 h, oxLDL (100 μM), LPA (30 μM), LPC (30 μM), large FSC gate", "result": 54.4, "unit": "%"}, {"measurement": "caspase-1 activation in smaller size of HAECs", "setting": "caspase-1; 6 h, oxLDL (100 μM), LPA (30 μM), LPC (30 μM), small FSC gate", "result": 25.2, "unit": "%"}]}
